{
  "source": "patent US9326970B2",
  "about": "“Choline esters” (Encore Health, LLC, priority 2009, dated 2016)",
  "key": {"[1]": {"system": "human umbilical vein endothelial cells (HUVEC, first passage)", "experiment": "In vitro toxicology: cell viability (MultiTox-Fluor or Live/Dead assay)", "type": "cell-based", "conditions": "doses ranging from 0.1 μM to 100 μM", "protocol": "Cell viability was determined using human umbilical vein endothelial cells (HUVEC, first passage). Cells were treated with the active agent in doses ranging from 0.1 μM to 100 μM. The number of live and dead cells was determined using the MultiTox-Fluor assay (Promega) or Live/Dead® assay (Invitrogen). Logistic plots were used to determine the compound's LD50 value. Lipoic acid was not cytotoxic the concentration range."}, "mouse lenses": {"system": "mouse lenses", "experiment": "Increase in elasticity: lens organ culture, change in lens diameter under coverslip (ΔD)", "description": "FIG. 4 depicts a scatter plot of the change in ΔD (micrometers) in the absence (control) and presence of lipoic acid in lens organ culture experiments. […] Statistical values are highly significant at p<0.0001 by unpaired t-test and by Kruskal Wallis test, which compared medians of each data set. The relative change in Young's modulus (E) can be calculated as the cubic value derived from the ΔD of the control divided by the ΔD of the experimental or E fractional change=(ΔD con/ΔDexp)^3.\nIncrease in Elasticity: Pairs of mouse lenses were incubated in medium 200 supplemented with an antibiotic, an antimycotic, the presence or absence of lipoic acid (concentrations ranging from 0.5 μM to 500 μM) for 8-15 hours. Each lens was removed from medium, weighed, and photographed on a micrometer scale. A coverslip of known weight (0.17899±0.00200 g) was placed on the lens, and the lens was photographed again on the micrometer scale. The diameter of each lens with and without the coverslip was determined from the photographs. The change in lens diameter produced by the force (coverslip) was computed ΔD=(Dwithcoverslip−Dwithoutcoverslip)."}, "[2]": {"system": "protein disulfides in the mouse lenses", "experiment": "Decrease in disulfide bonds: protein SH/SS groups in lens homogenates", "protocol": "FIG. 5 depicts a scattergram of the percent of the total protein SH groups in disulfide bonds. Free SH groups were alkylated with 4-acetamido-4′-maleimidylstilbene-2,2′-sulfonic acid (c, 1 μM, 5 μM, 9.6 μM, 50 μM, 96 μM) or 7-diethylamino-3-(4′maleimidylphenyl)-4-methyl coumarin (500 μM, and 500 μM c). Following removal of the first alkylating agent, the S—S bonds were reduced and alkylated with fluorescein-5-maleimide. Absorption spectra were used to calculated total protein (A280 nm), free protein SH (A322 or A384), and protein SS (A490) using the appropriate extinction coefficients. The symbol ‡ indicates statistically significant difference of mean with mean of control (c, p≦0.05).\nMouse lenses were homogenized in a denaturing buffer containing a fluorescent alkylating agent to modify the free SH groups. After removing the alkylating agent homogenates were reduced and alkylated with a different fluorescent alkylating agent. Absorption spectra of the modified proteins were used to calculate free protein SH and protein SS groups."}},
  "data": [
    {"smiles": "O=C(O)CCCCC1CCSS1", "note": "(centres unmarked) [Lipoic acid, 5-(1,2-dithiolan-3-yl)pentanoic acid]", "values": [
      {"measurement": "cytotoxicity (cell viability, LD50 from logistic plots)", "setting": "[1]", "value": "not cytotoxic"},
      {"measurement": "change in ΔD (micrometers) compared to controls, FIG. 4", "setting": "mouse lenses; lens organ culture, data sets marked ‡, p<0.0001 by unpaired t-test and Kruskal Wallis test", "value": "significantly larger changes in ΔD"},
      {"measurement": "change in ΔD (lens diameter with coverslip minus without)", "setting": "mouse lenses; lipoic acid at concentrations ≧9.6 μM, 8-15 hours incubation, vs control, p<0.0001", "value": "statistically significant increase in ΔD"},
      {"measurement": "percent of the total protein SH groups in disulfide bonds, FIG. 5", "setting": "[2]; 500 μM lipoic acid vs 500 μM control, p=0.027", "value": "significantly different"},
      {"measurement": "protein disulfides", "setting": "[2]; lipoic acid at concentrations ≧9.6 μM, mouse lenses with a significant increase in ΔD", "value": "statistically significant decrease in protein disulfides"}
    ]}
  ]
}
